Measurements taken from patent US11814352B2, “Salts formed by 2-(1-acyloxy-n-pentyl) benzoic acid and basic amino acid or aminoguanidine, and preparation method and application thereof” (JIANGSU KANION PHARMACEUTICAL CO., LTD., priority 2018, dated 2023).
Several values for one entry are separate records, joined by “and”; a condition that tells them apart may be missing. Identical values can stand only once. Counter-ions that a name gives are not always drawn. Like-named read-outs stand apart in the source and are kept apart here. Marks after values point to notes of the source that are not given here. Values belong to the compound of their own block, whether it stands above or below them.

Key:
[1] = system: AA induced platelet aggregation; assay: In vitro anti-platelet aggregation, AA induced (turbidimetry, PRP); assay type: cell-based, rabbits
Experimental: (§1) The animals were used for experiments after 1 week.
(§2) The common carotid artery was separated, and a polyethylene tube was inserted into the common carotid artery to collect blood. […] The upper beige suspension was pipetted to obtain the platelet-rich plasma (PRP). […] The PRP was adjusted with the PPP to make the platelet count at 1×10^8/mL.
(§3) 260 μL of platelet-rich plasma (PRP) was added into a turbidimetric tube. Then 10 μL of test compounds with different concentrations, positive control drugs or normal saline were separately added, and the plasma was incubated at 37° C. for 5 min. Then 30 μL of inducers were added in sequence. The final concentration of an inducer ADP is 10 μM, and the final concentration of an inducer AA is 1 mM. […] Inhibition rate of platelet aggregation (IRPA)=(platelet aggregation rate of the control group−platelet aggregation rate of the experimental group)/platelet aggregation rate of the control group×100%.

MCAO rats = assay: Cerebral infarction, cerebral edema and nerve function of rats with focal cerebral ischemia (MCAO); assay type: in vivo, SD rats; settings: for inhibition at 10 mg/kg/day: Rattus norvegicus
Experimental: The total number of the animals was 88.
Sham operation group: equal volume of normal saline (containing 1% DMSO) (iv. 3 days), TTC, cerebral edema and neurological function score (n=8); […]
The middle cerebral arteries of the rats were blocked by a suture-occluded method, and reperfused after 2 h. […] All drugs were formulated into normal saline solutions containing 1% DMSO for administration, and the duration of administration was controlled at approximately 1 min. […] 2 h after the last administration, the neurological defect scores were firstly obtained, and then the rats of each group were sacrificed. The whole brains were taken out and weighed (wet weight), TTC stained, and dried to determine the effects of the compounds on cerebral infarction and cerebral edema.
2 h after the last administration, the neurological defects of the animals were graded and scored by the Longa's method.
After the neurobehavioral examination was completed, four coronal incisions were made on the whole brains of the rats on the optic chiasma and 2 mm anteroposterior positions of the optic chiasma. After the whole brains were cut into five slices, the brain slices were quickly placed in 5 ml of phosphate buffer solution containing 2% TTC, and incubated at 37° C. in the dark. In the incubation process, the brain slices were turned once every 5 min. After 10 min of incubation, the brain slices were taken out and pictures were taken with a digital camera (Olympus C-4000, Japan).
The calculation formula of brain water content is as follows: Water content of brain tissue (%)=(wet weight of brain tissue−dry weight of brain tissue)/wet weight of brain tissue×100%; Cerebral edema rate (%)=water content of brain tissue of each group (%)−water content of brain tissue of sham operation group (%)/water content of brain tissue of sham operation group (%)×100%; Inhibition rate of cerebral edema (%)=(rate of cerebral edema of model group (%)−rate of cerebral edema of administration group (%))/rate of cerebral edema of model group (%)×100%.

[2] = system: ADP induced platelet aggregation; assay: In vitro anti-platelet aggregation, ADP induced (turbidimetry, PRP); assay type: cell-based, rabbits
Experimental: as §1, §2, §3

[3] = literature value; cited from earlier work
[4] = system: arteriovenous bypass thrombosis in rats; assay: Effect on arteriovenous bypass thrombosis in rats; assay type: in vivo, SD rats; settings: 10 mg/kg/day tail vein 7 days; for Dry weight of thrombus / Wet weight of thrombus: 2 h after last dose; for inhibition at 10 mg/kg/day: Rattus norvegicus, 168 h
Experimental: Male SD rats, weighing 250-280 g, purchased from Beijing Vital River Laboratory Animal Technology Co., Ltd., raised in an SPF breeding environment with indoor temperature controlled at 23±2° C., and allowed to freely eat and drink. The total number of the animals is 64.
Model group: injected with the same volume of normal saline (containing 1% DMSO) through the tail vein, and administered continuously for 7 days. The test was started 2 h after the last dose (n=8).
The dose of all drugs was 10 mg/kg/day. The drugs were formulated into normal saline solutions containing 1% DMSO, and injected through the tail vein for 7 consecutive days. The test was started 2 hours after the last dose (n=8).
The rats were intraperitoneally injected with a 3% pentobarbital sodium solution (30 mg/kg). After anesthesia, the rats were immobilized in the supine position, and a median cervical incision was made to separate the right common carotid artery and left external jugular vein. A 6 cm long suture was put in the middle of a polyethylene tube (the suture needs to be weighed before being put in the tube), and the polyethylene tube was filled with heparin saline (50 U/mL). The polyethylene tube was inserted into the separated blood vessels to make the artery and vein form a loop. After 15 min of circulation of the blood flow, the suture was taken out, and the suture with thrombus was collected and weighed immediately. Then, after the suture was dried at room temperature for 24 h, the dry weight was determined. The total weight minus the weight of the suture was the wet weight of the thrombus, and the dry weight minus the weight of the suture was the dry weight of the thrombus.

[5] = Pharmacokinetics of metabolites in rat plasma after intravenous injection of I1s; assay type: in vivo, SD male rats; settings: metabolite in rat plasma after I1s 25 mg/kg tail vein, rats 1-3
Experimental: (§4) 12 clean SD male rats, provided by Qinglongshan Animal Breeding Farm in Jiangning District, Nanjing. The production license number is SCXK (Jiangsu) 2017-0001. The body weight of the rats ranges from 180 to 220 g. The rats were used after being raised in the laboratory of an experimental animal center for 2 days after purchase, fasted for 12 hours before administration and 6 hours after administration, and were allowed to freely drink during the test period.
(§5) The concentration of the original drugs and metabolites in the rat blood were determined by LC-MS/MS, and WinNonlin pharmacokinetics professional software and a statistical moment method were used for calculation to obtain the corresponding pharmacokinetic parameters.

[6] = Concentration of metabolites in rat brain tissue after intravenous injection of I1s; assay type: in vivo; settings: for Passage through the blood-brain barrier: detected in rat brain tissue after iv I1s; for concentration at 6 h: male, Sprague-Dawley, rat, brain, iv, 25 mg/kg, read-out: Concentration in brain tissue (single rats)
Experimental: as §4, §5

[7] = system: bleeding time in mice after tail cutting; assay: Effect on bleeding time in mice after tail cutting; assay type: in vivo, Kunming mice; settings: 5 mg/kg orally once a day for 14 days, 1 h after last dose
Experimental: SPF Kunming mice, weighing 18-22 g, purchased from Beijing Vital River Laboratory Animal Technology Co., Ltd., having a certificate number of SCXK (Beijing) 2010-0002, raised in an SPF animal room with indoor temperature controlled at 23±2° C., and allowed to freely eat and drink. The day and night time was 12 h/12 h.
The administration dose level of the positive drug groups and the test drug groups was 5 mg/kg, and the same amount of normal saline was given to the negative control group. All mice were administered for 14 consecutive days orally once a day. One hour after the last dose, the mice were anesthetized with 1-2% isoflurane, and the tails were cut for 5 mm. The tips of the tails were absorbed dry with filter paper every 30 seconds until the bleeding stopped naturally. Bleeding time is defined as the interval between the start and stop of bleeding.

[8] = Concentration of metabolites in rat brain tissue after intravenous injection of I1s; assay type: in vivo; settings: male, Sprague-Dawley, rat, brain, iv, 25 mg/kg; for concentration at 0.5 h: 0.5 h after intravenous injection of I1s; for concentration at 1 h: 1 h after intravenous injection of I1s
[9] = read-out: IC50 AA (1 mM), rabbit PRP, inducer AA 1 mM, 37° C.
[10] = iv 2 h after the beginning of reperfusion, 5 mg/kg
[11] = iv at the beginning of reperfusion, 5 mg/kg
[12] = read-out: IC50 ADP (10 μM), rabbit PRP, inducer ADP 10 μM, 37° C.
[13] = MCAO rats, 10 mg/kg/day iv 3 days (combinations equimolar), first dose 2 h after reperfusion
[14] = male, Sprague-Dawley, rat, plasma, iv, 25 mg/kg
[15] = male, Sprague-Dawley, rat, plasma, iv, 25 mg/kg, read-out: AUC(0-t)
[16] = male, Sprague-Dawley, rat, plasma, iv, 25 mg/kg, read-out: Cmax
[17] = 6 h after intravenous injection of I1s
[18] = Oryctolagus cuniculus, Platelet, read-out: IC50 ADP (10 μM), rabbit PRP, inducer ADP 10 μM, 37° C.
[19] = vs model group, read-out: Inhibition rate (dry weight of thrombus)
[20] = vs model group, read-out: Inhibition rate (wet weight of thrombus)
[21] = read-out: Concentration in brain tissue (single rats)
[22] = read-out: Concentration in brain tissue, Mean

Compound: CCCCC(OC(=O)CC)c1ccccc1C(=O)O (racemic) (as salt: salt) [I2, L-Arginine (R/S)-2-(1-Propionyloxy-n-Pentyl) Benzoate]
melting point: 169 to 171 °C

Compound: CCCCC(OC(=O)CCC)c1ccccc1C(=O)O (racemic) (as salt: salt) [I3, L-Arginine (R/S)-2-(1-N-Butyryloxy-n-Pentyl) Benzoate]
melting point: 152 to 153 °C

Compound: CCCCC1OC(=O)c2ccccc21 (racemic) [(R/S)-NBP, racemic (R/S)-3-N-butyl-1(3H)-isobenzofuranone]
IC50 [1, 9]: 600 ± 70 µM
Cerebral edema (MCAO rats; [10]): 6.72 ± 4.05%
Infarct volume (MCAO rats; [10]): 36.50 ± 7.58%
Inhibition rate of cerebral edema (MCAO rats; [10]): 28.80%
Inhibition rate of infarct volume (MCAO rats; [10]): 26.43%
Cerebral edema (MCAO rats; [11]): 5.80 ± 1.83%
Infarct volume (MCAO rats; [11]): 28.55 ± 8.25%
Inhibition rate of cerebral edema (MCAO rats; [11]): 40.21%
Inhibition rate of infarct volume (MCAO rats; [11]): 41.96%
IC50 [2, 12]: 1360 ± 130 µM
half-life [3]: 0.733 h

Compound: CCCCC(OC(C)=O)c1ccccc1C(=O)O.N=C(N)NCCC[C@H](N)C(=O)O (racemic) [I1, L-Arginine (R/S)-2-(1-Acetoxy-n-Pentyl) Benzoate]
Dry weight of thrombus [4]: 7.64 ± 0.40
Wet weight of thrombus [4]: 25.81 ± 2.20**^
Inhibition rate (dry weight of thrombus) ([4]; vs model group): 23.94%
Inhibition rate (wet weight of thrombus) ([4]; vs model group): 28.72%
IC50 [1, 9]: 180 ± 30 µM
Cerebral edema (MCAO rats; [13]): 4.97 ± 3.30%
Infarct volume (MCAO rats; [13]): 16.11 ± 2.74%
Inhibition rate of cerebral edema (MCAO rats; [13]): 69.00%
Inhibition rate of infarct volume (MCAO rats; [13]): 61.50%
IC50 [2, 12]: 740 ± 90 µM

Compound: CCCC[C@H](OC(C)=O)c1ccccc1C(=O)O [(S)-APB, (S)-2-(1-acetoxy-n-pentyl)benzoic acid]
half-life ([5]; male, Sprague-Dawley, rat, plasma, intravenous, 25 mg/kg): ~3 h
AUC(0-inf) [5, 14]: 31800 ng·h/mL
clearance [5, 14]: 13.1 mL/min/kg
half-life [5, 14]: 2.71 h
AUC(0-t) [5, 15]: 31700 ng·h/mL
Cmax [5, 16]: 51400 ng/mL
AUC(0-t) ([5]; listed as M2): 28614.9 ng·h/mL and 28503.7 ng·h/mL
AUC(0-∞) ([5]; listed as M2): 28748.5 ng·h/mL and 28703.5 ng·h/mL
Cl ([5]; listed as M2): 14.494 mL/min/kg and 14.516 mL/min/kg
Cmax ([5]; listed as M2): 53513.2 ng/mL and 52069.2 ng/mL
Vz ([5]; listed as M2): 4.1842 L/kg and 4.8584 L/kg
Passage through the blood-brain barrier [6]: could all pass through the blood-brain barrier
concentration at 6 h [6, 17]: 26.1 ng/g
IC50 [1, 9]: 430 ± 50 µM
IC50 [2, 18]: 790 ± 80 µM

Compound: CC(=O)Oc1ccccc1C(=O)O [Aspirin]
Dry weight of thrombus [4]: 6.06 ± 0.46
Wet weight of thrombus [4]: 21.46 ± 1.76
inhibition at 10 mg/kg/day [4, 19]: 39.7%
inhibition at 10 mg/kg/day [4, 20]: 40.7%
IC50 ([1]; Oryctolagus cuniculus, Platelet, read-out: IC50 AA (1 mM), rabbit PRP, inducer AA 1 mM, 37° C.): 160 ± 10 µM
IC50 [2, 18]: 780 ± 50 µM
Bleeding time [7]: 22.52 ± 1.31 min

Compound: COC(=O)[C@H](c1ccccc1Cl)N1CCc2sccc2C1 [Clopidogrel]
Bleeding time [7]: 25.28 ± 0.48 min

Compound: CCCC[C@@H](OC(C)=O)c1ccccc1C(=O)O [I1r, L-Arginine (R)-2-(1-Acetoxy-n-Pentyl) Benzoate]
Dry weight of thrombus [4]: 8.51 ± 0.18
inhibition at 10 mg/kg/day [4, 19]: 15.2%
inhibition at 10 mg/kg/day [4, 20]: 18.4%
IC50 [1, 9]: 180 ± 30 µM
Cerebral edema (MCAO rats; [13]): 10.72 ± 4.19%
Infarct volume (MCAO rats; [13]): 20.14 ± 2.95%
inhibition at 10 mg/kg/day (MCAO rats; MCAO rats, 10 mg/kg/day iv 3 days (combinations equimolar), first dose 2 h after reperfusion, read-out: Inhibition rate of cerebral edema): 33.2%
inhibition at 10 mg/kg/day (MCAO rats; MCAO rats, 10 mg/kg/day iv 3 days (combinations equimolar), first dose 2 h after reperfusion, read-out: Inhibition rate of infarct volume): 51.9%
IC50 [2, 12]: 730 ± 70 µM

concentration at 0.5 h [8, 21]: 76.8 ng/g
concentration at 0.5 h [8, 22]: 111 ng/g
concentration at 1 h [8, 21]: 35.5 ng/g
concentration at 1 h [8, 22]: 35.9 ng/g
concentration at 6 h [8, 17]: 31.5 ng/g
AUC(0-inf) [5, 14]: 624 ng·h/mL
clearance [5, 14]: 668 mL/min/kg
AUC(0-t) [5, 15]: 518 ng·h/mL
Cmax [5, 16]: 737 ng/mL
AUC(0-t) [5]: 577.8 ng·h/mL and 492.6 ng·h/mL
AUC(0-∞) [5]: 673.9 ng·h/mL and 858.7 ng·h/mL
Cl [5]: 618.2922 mL/min/kg and 485.2238 mL/min/kg
Cmax [5]: 876.5 ng/mL and 569.2 ng/mL
Concentration in brain tissue (single rats) ([6]; 0.5 h after intravenous injection of I1s): 118.09 ng/g and 137.01 ng/g
Concentration in brain tissue (single rats) ([6]; 1 h after intravenous injection of I1s): 39.47 ng/g and 32.78 ng/g
Concentration in brain tissue (single rats) [6, 17]: 31.33 ng/g and 32.14 ng/g
concentration at 6 h [6, 17]: 31.1 ng/g
Compound: CCCC[C@H](O)c1ccccc1C(=O)O [M3, (S)-2-(1-hydroxy-n-pentyl)benzoic acid]
Passage through the blood-brain barrier [6]: could all pass through the blood-brain barrier
